# Assay results taken from patent publication US11718612B2, “Inhibitors of receptor interacting protein kinase I for the treatment of disease” (Board of Regents, The University of Texas System, priority 2019, dated 2023).
# How the values were obtained:
# U937 cells = test: Human U937 cellular necroptosis assay; assay type: cell-based; conditions: U-937; U937 cells stimulated with 25 ng/mL human TNFalpha and 25 μM z-VAD-FMK; 22 hr; Cell Titer-Glo viability
# Protocol: Human U937 Cellular Necroptosis Assay
# The human monocytic cell line U937 (CRL-1593.2) may be purchased from ATCC. The cells are routinely maintained in RPMI-1640 Medium (Gibco, Catalog #11875-093) supplemented with 10% heat inactivated fetal bovine serum (Gibco, Catalog #16140-071), 100 units/mL penicillin and 100 μg/mL streptomycin (Gibco, Catalog #15140-122), in a humidified incubator (37° C., 5% CO2). For the assay, cells are resuspended in RPMI-1640 phenol red free Media (Gibco, Catalog #11835-030) supplemented with 10% fetal bovine serum (Sigma, Catalog #F2442), 100 units/mL penicillin and 100 ug/mL streptomycin. […] Stock solutions of the test compounds are prepared in 100% DMSO (Sigma, Catalog #D2650) and serially diluted 1:3 using 100% DMSO. Compounds are additionally diluted 1:40 in assay medium, and 10 μL/well was transferred to the plate. Following the compound addition, the plate is incubated at 37° C. and 5% CO2 for 22 hr. After 22 hr, viability is assessed with the addition of 20 μL of Cell Titer-Glo 2.0 (Promega, Catalog #G9243). The tissue culture plate is shaken on an orbital shaker at 300 RPM for 15 minutes at room temperature in the dark. Luminescence is measured using a PerkinElmer Envision™ plate reader. IC50 values are calculated using a four-parameter logistic curve fit using Genedata Screener software.
# RIPK1 = RIPK1 (Homo sapiens (Human), UniProt Q13546); test: ADP-Glo kinase assay, RIPK1 activity; assay type: biochemical; conditions: 5 nM RIPK1, 50 μM ATP, 6 hr reaction
# RIPK1, sequence (Q13546 1-327): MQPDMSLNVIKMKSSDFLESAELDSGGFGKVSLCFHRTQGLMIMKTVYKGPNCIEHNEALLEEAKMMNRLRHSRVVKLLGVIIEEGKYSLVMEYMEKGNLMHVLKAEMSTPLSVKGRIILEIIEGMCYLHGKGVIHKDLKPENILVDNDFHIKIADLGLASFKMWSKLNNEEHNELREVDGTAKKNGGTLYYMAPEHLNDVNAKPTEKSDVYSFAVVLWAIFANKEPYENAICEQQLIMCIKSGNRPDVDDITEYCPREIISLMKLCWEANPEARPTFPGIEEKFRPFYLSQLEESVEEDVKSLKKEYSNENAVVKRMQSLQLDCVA
# Protocol: In order to measure RIPK1 activity the ADP-Glo kinase assay (Promega, Catalog #V7002) was used to measure the conversion of ATP to ADP. This enzymatic assay was performed in a 384-well white, Optiplate (Perkin Elmer, Catalog #6007299) with assay buffer consisting of 50 mM HEPES pH 7.5 (Gibco, Catalog #15630-080), 50 mM NaCl (Teknova, Catalog #S0252), 30 mM MgCl2 (Ambion, Catalog #AM9530G), 1 mM DTT (Santa Cruz Biotechnology, Catalog #sc-29089), 0.05% BSA (Sigma, Catalog #A3059-50G) and 0.02% CHAPS (Sigma, Catalog #C5070-5G). Stock solutions of the test compounds were prepared in 100% DMSO (Sigma, Catalog #D2650) and serially diluted 1:3 using 100% DMSO. Compounds were additionally diluted 1:40 in assay buffer, and 2 μL/well were transferred to the assay plate. 4 μL/well (final concentration of 5 nM) of RIPK1 protein (SignalChem, Catalog #R07-11G-05) diluted in assay buffer and added to the assay plate followed by a 10 minute preincutation at room temperature. 4 μL/well of ATP (Promega, Catalog #V7002) (final concentration of 50 μM) diluted in assay buffer were then added to the assay plate followed by a 6 hr reaction time. Final concentrations of RIPK1 and ATP refer to a 10 μL volume. Luminescence was measured using a BioTek Synergy™ NEO plate reader. IC50 values were calculated using a four-parameter logistic curve fit using Genedata Screener software.
SMILES,IC50 (U937 cells),IC50 (RIPK1)
"O=C1c2nn(Cc3ccccc3)c(Cl)c2CCN1c1cccc(Cl)c1F [Example 2, 2-Benzyl-3-chloro-6-(3-chloro-2-fluoro-phenyl)-4,5-dihydropyrazolo[3,4-c]pyridin-7-one]",71.2 nM,17.4 nM
"O=C1c2nn(Cc3cc(F)cc(F)c3)c(Cl)c2CCN1c1cccc(Cl)c1F [Example 3, 3-Chloro-6-(3-chloro-2-fluorophenyl)-2-(3,5-difluorobenzyl)-5,6-dihydro-2H-pyrazolo[3,4-c]pyridin-7(4H)-one]",189 nM,111 nM
"Cc1nc(C(=O)Nc2cccc(Cl)c2F)nn1Cc1cnccn1 [Example 4, N-(3-Chloro-2-fluoro-phenyl)-5-methyl-1-(pyrazin-2-ylmethyl)-1,2,4-triazole-3-carboxamide]",1430 nM,110 nM
"O=C(Nc1cccc(Cl)c1F)c1cc(O)n(Cc2cnccn2)n1 [Example 8, N-(3-chloro-2-fluoro-phenyl)-5-hydroxy-1-(pyrazin-2-ylmethyl)pyrazole-3-carboxamide]",–,31200 nM
"O=C(Nc1cccc(Cl)c1F)c1n[nH]c(Cc2ccccc2)n1 [Example 9, 5-benzyl-N-(3-chloro-2-fluoro-phenyl)-1H-1,2,4-triazole-3-carboxamide]",6300 nM,245 nM
"Cn1nc(C(=O)Nc2cccc(Cl)c2F)nc1Cc1ccccc1 [Example 10, 5-Benzyl-N-(3-chloro-2-fluoro-phenyl)-1-methyl-1,2,4-triazole-3-carboxamide]",9220 nM,702 nM
"Cn1cc(-c2cc(F)c(F)c(NC(=O)c3n[nH]c(Cc4ccccc4)n3)c2)cn1 [Example 11, 5-Benzyl-N-(2,3-difluoro-5-(1-methyl-1H-pyrazol-4-yl)-phenyl)-1H-1,2,4-triazole-3-carboxamide]",> 10000 nM,4060 nM
"O=C(Nc1cccc(Cl)c1F)c1ncn(Cc2ccccc2F)n1 [Example 12, N-(3-chloro-2-fluorophenyl)-1-(2-fluorobenzyl)-1H-1,2,4-triazole-3-carboxamide]",657 nM,18.6 nM
"Cc1nc(C(=O)Nc2cccc(Cl)c2F)nn1Cc1ccccc1 [Example 13, 1-benzyl-N-(3-chloro-2-fluorophenyl)-5-methyl-1H-1,2,4-triazole-3-carboxamide]",1270 nM,41.9 nM
"O=C(Nc1cccc(Cl)c1F)c1nc(Cc2ccccc2)c[nH]1 [Example 14, 4-Benzyl-N-(3-chloro-2-fluoro-phenyl)-1H-imidazole-2-carboxamide]",–,6960 nM
"O=C1c2nc(Cc3ccccc3)cn2CCN1c1cccc(Cl)c1F [Example 15, 2-Benzyl-7-(3-chloro-2-fluoro-phenyl)-5,6-dihydroimidazo[1,2-a]pyrazin-8-one]",–,3150 nM
"O=C1c2nc(Cc3ccccc3)c(Cl)n2CCN1c1cccc(Cl)c1F [Example 16, 2-Benzyl-3-chloro-7-(3-chloro-2-fluoro-phenyl)-5,6-dihydroimidazo[1,2-a]pyrazin-8-one]",–,123 nM
"O=C(Nc1cccc(Cl)c1F)c1nc(Cc2ccccc2)c(Cl)[nH]1 [Example 18, 4-Benzyl-5-chloro-N-(3-chloro-2-fluoro-phenyl)-1H-imidazole-2-carboxamide]",–,18700 nM
"O=C(Nc1cccc(Cl)c1F)c1nnc(Cc2ccccc2)o1 [Example 19, 5-Benzyl-N-(3-chloro-2-fluorophenyl)-1,3,4-oxadiazole-2-carboxamide]",> 10000 nM,1010 nM
"O=C(Nc1ccccc1F)c1n[nH]c(Cc2ccccc2)n1 [Example 20, 5-benzyl-N-(2-fluorophenyl)-1H-1,2,4-triazole-3-carboxamide]",6230 nM,521 nM
"O=C(Nc1cccc(Cl)c1)c1n[nH]c(Cc2ccccc2)n1 [Example 21, 5-benzyl-N-(3-chlorophenyl)-1H-1,2,4-triazole-3-carboxamide]",> 10000 nM,854 nM
"O=C(Nc1cccc(F)c1F)c1n[nH]c(Cc2ccccc2)n1 [Example 22, 5-benzyl-N-(2,3-difluorophenyl)-1H-1,2,4-triazole-3-carboxamide]",> 10000 nM,1570 nM

SMILES,IC50 (U937 cells),IC50 (RIPK1)
"O=C(Nc1cc(F)cc(F)c1F)c1n[nH]c(Cc2ccccc2)n1 [Example 23, 5-benzyl-N-(2,3,5-trifluorophenyl)-1H-1,2,4-triazole-3-carboxamide]",> 10000 nM,2260 nM
"O=C(Nc1cc(Cl)cc(Cl)c1)c1n[nH]c(Cc2ccccc2)n1 [Example 24, 5-benzyl-N-(3,5-dichlorophenyl)-1H-1,2,4-triazole-3-carboxamide]",> 10000 nM,3360 nM
"Cn1cc(-c2cc(Cl)c(F)c(NC(=O)c3n[nH]c(Cc4ccccc4)n3)c2)cn1 [Example 25, 5-benzyl-N-(3-chloro-2-fluoro-5-(1-methyl-1H-pyrazol-4-yl)phenyl)-1H-1,2,4-triazole-3-carboxamide]",10000 nM,4350 nM
"Cc1nc(C(=O)Nc2cccc(Cl)c2F)nn1Cc1cccc(C#N)c1 [Example 34, N-(3-chloro-2-fluoro-phenyl)-1-(3-cyano-benzyl)-5-methyl-1H-1,2,4-triazole-3-carboxamide]",–,472 nM
"O=C(Nc1ccc(Cl)c(Cl)c1F)c1ncn(Cc2ccccc2)n1 [Example 37, 1-benzyl-N-(3,4-dichloro-2-fluoro-phenyl)-1H-1,2,4-triazole-3-carboxamide]",–,1100 nM
"O=C(Nc1cc(C(F)(F)F)cc(Cl)c1F)c1ncn(Cc2ccccc2)n1 [Example 38, 1-benzyl-N-(3-chloro-2-fluoro-5-(trifluoro-methyl)phenyl)-1H-1,2,4-triazole-3-carboxamide]",–,1300 nM
"N#Cc1ccc(NC(=O)c2ncn(Cc3ccccc3)n2)c(F)c1Cl [Example 39, 1-benzyl-N-(3-chloro-4-cyano-2-fluorophenyl)-1H-1,2,4-triazole-3-carboxamide]",–,1410 nM
"O=C(Nc1ccc(Br)c(Cl)c1F)c1ncn(Cc2ccccc2)n1 [Example 40, 1-benzyl-N-(4-bromo-3-chloro-2-fluoro-phenyl)-1H-1,2,4-triazole-3-carboxamide]",–,1650 nM
"COc1ccc(N(C)C(=O)c2ncn(Cc3ccccc3)n2)c(F)c1Cl [Example 41, 1-benzyl-N-(3-chloro-2-fluoro-4-methoxy-phenyl)-N-methyl-1H-1,2,4-triazole-3-carboxamide]",–,9250 nM
"O=C1c2nc(Cc3ccccc3)c(Cl)n2CCN1c1cccc(Cl)c1 [Example 42, 2-benzyl-3-chloro-7-(3-chlorophenyl)-6,7-dihydroimidazo[1,2-a]pyrazin-8(5H)-one]",–,318 nM
"O=C1c2nc(Cc3ccccc3)cn2CCN1c1cccc(Cl)c1 [Example 43, 2-benzyl-7-(3-chlorophenyl)-6,7-dihydroimidazo[1,2-a]pyrazin-8(5H)-one]",–,13700 nM
"Cn1cc(C(=O)Nc2cccc(Cl)c2F)nc1Cc1ccccc1 [Example 44, 2-benzyl-N-(3-chloro-2-fluorophenyl)-1-methyl-1H-imidazole-4-carboxamide]",–,> 33000 nM
"O=C(Nc1cccc(Cl)c1F)c1c[nH]c(Cc2ccccc2)n1 [Example 45, 2-benzyl-N-(3-chloro-2-fluorophenyl)-1H-imidazole-4-carboxamide]",–,48600 nM
"O=C1c2cc(Cc3ccccc3)ccc2CN1c1ccccc1F [Example 48, 6-Benzyl-2-(2-fluorophenyl)isoindolin-1-one]",–,2470 nM
"O=C1c2nc(Cc3ccccc3)ccc2CN1c1ccccc1F [Example 49, 2-Benzyl-6-(2-fluorophenyl)-5,6-dihydro-7H-pyrrolo[3,4-b]pyridin-7-one]",–,3680 nM
"Cc1cc(NC(=O)c2ncn(Cc3ccccc3)n2)ccc1OC(F)(F)F [Example 53, 1-benzyl-N-(3-methyl-4-(trifluoromethoxy)-phenyl)-1H-1,2,4-triazole-3-carboxamide]",–,4910 nM
"O=C(Nc1cccc(Cl)c1F)c1ncn(Cc2cncc(F)c2)n1 [Example 103, N-(3-chloro-2-fluorophenyl)-1-((5-fluoropyridin-3-yl)methyl)-1H-1,2,4-triazole-3-carboxamide]",–,83.9 nM
